These results are taken from patent US20250213587A1, “ITK INHIBITORS FOR INCREASING TH1 CELL ACTIVITY” (Corvus Pharmaceuticals, Inc., priority 2022, published 2025).

Data set [1] has as its target T1, ITK (Homo sapiens, UniProt Q08881).
T1 sequence (Q08881 1-620): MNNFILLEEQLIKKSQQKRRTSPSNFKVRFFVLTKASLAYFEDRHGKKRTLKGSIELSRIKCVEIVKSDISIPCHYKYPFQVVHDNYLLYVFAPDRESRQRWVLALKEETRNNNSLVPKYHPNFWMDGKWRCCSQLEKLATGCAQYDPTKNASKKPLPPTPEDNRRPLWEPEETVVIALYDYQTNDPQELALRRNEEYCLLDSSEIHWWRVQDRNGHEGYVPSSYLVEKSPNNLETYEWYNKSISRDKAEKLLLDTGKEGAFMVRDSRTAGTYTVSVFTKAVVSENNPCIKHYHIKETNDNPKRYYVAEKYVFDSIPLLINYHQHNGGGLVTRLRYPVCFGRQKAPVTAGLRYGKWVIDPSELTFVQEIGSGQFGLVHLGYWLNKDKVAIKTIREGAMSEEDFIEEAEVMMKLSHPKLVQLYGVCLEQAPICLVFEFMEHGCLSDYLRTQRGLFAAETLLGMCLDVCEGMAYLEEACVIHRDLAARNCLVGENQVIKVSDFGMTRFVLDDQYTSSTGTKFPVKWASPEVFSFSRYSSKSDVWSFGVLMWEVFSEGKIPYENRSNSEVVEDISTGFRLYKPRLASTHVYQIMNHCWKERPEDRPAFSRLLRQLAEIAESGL
The data set can be described thus: Jump dilution assay. It counts as binding. More on the design: purchased Invitrogen. The following applies: for reversibility of ITK inhibition on dilution: dilution into competitive probe. As to the method: The assay format is similar to the Competitive Tracer-binding Assay and relies on the reversible binding of tracer 236 to recombinant tagged human ITK. […] The mixture was then filtered through a desalting column (Thermo Scientific, Zeba Spin Desalting Column, 40K MWCO) to remove unbound inhibitor. The assay was initiated immediately after the desalting step by diluting the eluate containing the inhibited kinase complex 50-fold into a solution of anti-tag antibody (2 nM final) and excess tracer 236 (40 nM final). Dissociation of inhibitor and binding of tracer was monitored immediately after assay initiation using an EnVision plate reader (excitation 340 nm, dual emission at 665 nm and 615 nm). Reagents including GST-tagged recombinant human ITK, Kinase tracer 236, Lanthascreen Eu-Anti-GST antibody and kinase buffer A were purchased from ThermoFisher Scientific/Invitrogen. Each data point represents the mean of technical triplicates. Equation 3 was fitted to the BMS-509744 data to obtain the rate constant using GraphPad Prism from which the half-life was calculated.

In data set [2] the test system is CD4+ T cells, Sézary cells. The data set is described as follows: Cytokine production by CD4+ cells and Sézary cells stimulated with anti-CD3/28/2. The data set is classed as cell-based, human. An excerpt: This is significant because cytokines secreted by Th2 cells are involved in inflammation, allergy and autoimmunity. […] There was no effect on Th1-dependent IFNg, except at high concentrations. Inhibition of Th2 cells blocks production of various inflammatory cytokines, including IL-4, IL-5, IL-9, IL-13, and IL17a.

The test system of data set [3] is MRL lymphoproliferation strain mice. The data set can be described thus: MRL/lpr lupus model. The following applies: mouse, in vivo.
Data set [4] in a line: Mouse pharmacokinetics after oral dosing. It counts as in vivo.
Data set [5] concerns the target T1, ITK. The data set can be described thus: Human kinome profiling at 1.0 μM, ITK. More on the design: purchased Invitrogen. The data set is classed as biochemical.
The next data set addresses Cys442Ala ITK (Homo sapiens, UniProt Q08881, C442A). The data set can be described thus: Inhibition of Cys442Ala ITK mutant. The data set is classed as biochemical. Particulars: similar conditions.
Data set [6] concerns IL-2 secretion by Jurkat T cells. The data set is described as follows: Inhibition of IL-2 production in Jurkat cells. It counts as cell-based. The following applies: Homo sapiens, washout, anti-CD3 18 hours, 15 determinations. As to the method:
Jurkat cells (0.25×10^6) in Dulbecco's Modified Eagle's medium (Gibco) supplemented with 5% FBS were seeded in each well of a 96 well MultiScreenR HV filter plate (EMD Millipore) placed on top of a 96 well collection plate. CPI 818 was serially diluted in DMSO and added to the culture. After a 2-hour incubation at 37° C. the plates were centrifuged (188×g for 15 seconds) to remove the inhibitor-containing medium from the filter plate. Cells were washed twice by resuspending with 200 μL of medium per well and centrifuged. Cells in each well were then resuspended with 1.25×10^6 (50 μL) of Dynabeads CD3 (Life Technologies) and incubated for 18 hours at 37° C. Conditioned media was collected by centrifugation (188×g for 1 min). Human IL-2 concentration was measured with the AlphaLISA human IL2 Kit (PerkinElmer) and data collected on an Envision Plate Reader (PerkinElmer). Data were analyzed and graphed using GraphPad Prism version b7.0b. Technical duplicates of the concentration response were collected at each determination.

The subject of data set [7] is peripheral T cell lymphoma. The data set is described as follows: Anti-tumor activity in human clinical trials (T cell lymphoma). It counts as in vivo. From the text: Each lane represents a patient with the length indicating time on treatment. A treatment cycle is 21 days and then the cycle is repeated until the patient experiences tumor progression or unacceptable toxicity.

The next data set deals with PLCγ1 phosphorylation. The data set can be described thus: Inhibition of PLCγ1 phosphorylation in Jurkat cells. The data set is classed as cell-based, human. Particulars: anti-CD3. On the procedure: Jurkat human acute T cell leukemia cell line (ATCC, TIB-152) was cultured in RPMI 1640 medium supplemented with Penicillin-Streptomycin (Gibco) and 10% fetal bovine serum (FBS) at 37° C. and 5% CO2. […] The cell pellet was resuspended in NP40 lysis buffer (Invitrogen) containing protease and phosphatase inhibitors cocktail (Cell Signaling Technology), incubated for 30 minutes on ice, and centrifuged at 15, 000×g for 10 minutes. The lysate supernatant from each condition containing 50 μg of total protein was resolved on an 8% Bis-Tris gel (Invitrogen) under reducing condition and transferred onto a nitrocellulose membrane (Invitrogen) using an iBlot2 gel transfer device. Unless specified otherwise, all reagents described above were purchased from Thermo Fisher Scientific. Membranes were blocked for 1 hour at room temperature and incubated overnight at 4° C. with primary antibodies (1:1000 dilution) in Odyssey blocking buffer (LI-COR) with 0.2% Tween 20. Membranes were washed 4 times (5 min each) in Tris-buffered saline, 0.10% Tween 20 and incubated with IRDye 800CW Anti-Rabbit IgG and IRDye 700CW Anti-Mouse IgG (LI-COR) secondary antibodies (1:20,000 dilution) for 1 hour at room temperature. After washes, membranes were imaged in the LI-COR Odyssey® Fc Imaging System. […]

[8] abbreviates: PTCL-NOS patient, within 8-15 days.

Cys442Ala ITK, sequence (Q08881 whole entry C442A): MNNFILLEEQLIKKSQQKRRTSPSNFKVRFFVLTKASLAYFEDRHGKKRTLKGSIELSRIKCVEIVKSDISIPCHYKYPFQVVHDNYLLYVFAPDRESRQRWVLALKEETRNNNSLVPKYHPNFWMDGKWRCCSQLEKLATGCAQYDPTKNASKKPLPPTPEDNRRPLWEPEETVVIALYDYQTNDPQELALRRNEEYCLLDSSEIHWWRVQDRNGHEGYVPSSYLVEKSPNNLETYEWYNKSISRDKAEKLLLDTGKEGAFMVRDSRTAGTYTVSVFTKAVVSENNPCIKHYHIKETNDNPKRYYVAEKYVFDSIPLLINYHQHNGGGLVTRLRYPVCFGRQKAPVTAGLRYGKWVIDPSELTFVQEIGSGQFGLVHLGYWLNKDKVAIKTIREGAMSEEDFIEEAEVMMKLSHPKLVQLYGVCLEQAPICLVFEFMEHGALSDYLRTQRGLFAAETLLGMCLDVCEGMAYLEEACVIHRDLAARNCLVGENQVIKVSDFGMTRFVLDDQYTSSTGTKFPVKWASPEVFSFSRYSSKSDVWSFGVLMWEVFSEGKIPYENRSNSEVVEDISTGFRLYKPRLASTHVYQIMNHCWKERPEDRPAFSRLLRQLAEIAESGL
Procedure for Cys442Ala ITK: Two biochemical assays of kinase activity were employed. […] In the Lanthascreen assay each kinase (1.0 nM) was incubated with compound for 120 minutes at 22° C. in a buffer composed of 50 mM HEPES (pH 7.5), 10 mM MgCl2, 1 mM EGTA, and 0.01% Brij 35. The kinase reaction was initiated by the addition of ATP (50 μM final) and fluorescein-poly-Glu-Tyr peptide (200 nM final). The reaction was quenched after 60 minutes at 22° C., and phospho-peptide product detected by the addition of EDTA (10 mM final) and terbium PY20 antibody (2 nM final). The phospho-peptide product was measured by time-resolved fluorescence resonance energy transfer (TR FRET) between the terbium of the antibody and fluorescein of the phospho-peptide using an EnVision plate reader (PerkinElmer, Waltham, MA) equipped to detect the TR-FRET signal (excitation 320 nm, dual emission at 495 nm and 520 nm). All reagents including recombinant human kinases, fluorescein-poly-Glu-Tyr peptide, terbium PY20 antibody, and kinase buffer A were purchased from Invitrogen.
Inhibition of kinase activity was measured by construction of a concentration response curve of the inhibitor. […] The response reading was normalized according to equation 1 and plotted against the Log base 10 transformed values of the molar concentration of inhibitor. The IC50 value was obtained by fitting equation 2 to the data. […]

Usually Tmax stands for the time at which the peak concentration occurs. By half-life is commonly meant how long it takes for the measured level to halve. The term inhibition denotes the percentage by which the read-out fell short of the control. A higher inhibition goes with a strong effect. The term IC50 denotes the concentration that inhibits the measured activity by half. Read a low IC50 as inhibition by little substance. In the case of `C=CC(=O)N1CCCN(C(=O)c2cc(Sc3cnc(NC(=O)C4CC4)s3)c(C)cc2OC)C[C@H]1C` [CPI-818], the “persistence of blockade of tracer binding to ITK” value at ITK [1] (after jump dilution) is on record as “greater than 24 h”. On ITK [1], the “reversibility of ITK inhibition on dilution” value was “did not dissociate upon dilution”. Further, the “reversibility of ITK inhibition on dilution” value at ITK [1] (listed as CP-818) is “irreversible”. Besides, the “Interferon gamma (IFNg) production” value in data set [2] was “only inhibited at high concentrations”. The Th2 cytokine production entry in data set [2] (CD4+ T cells) was “dose-dependent inhibition of Th2 cytokine”. In data set [3], the lymphadenopathy entry is reported as “inhibits” and the proteinuria result is given as “inhibits”. For the same compound, the Tmax in data set [4] (male, C57Bl/6, mouse, plasma, single 50 mg/kg PO) was 0.5 h. Besides, the half-life in [4] (male, C57Bl/6, mouse, plasma, single 50 mg/kg PO, read-out: half-life in circulation (converted)) is 2.4 h. For the same compound, the oral bioavailability entry in data set [4] (mouse, in vivo, po) is “orally bioavailable”. In addition, the “decrease of plasma concentration” value in data set [4] (single 50 mg/kg PO, over first 8 h) is 10 fold. For the same compound, the inhibition at 1 µM on ITK [5] was above 95%. For the same compound, the “change of IC50 at Cys442Ala ITK compared to wild-type” value on Cys442Ala ITK was above 100 fold. In data set [6], the half-inhibitory concentration (IC50) is 136 nM. Further, the “dose with best anti-tumor response” value in data set [7] (100, 200, 400, 600 mg BID evaluated) was “best response occurred at the dose of 200 mg BID”. Also, in data set [7] (Example 2, 200 mg BID), the “duration of complete remission” value is 25 months and the “response of patient with peripheral T-cell lymphoma NOS” value is given as “complete remission”. Moreover, in [7] (FIG. 23, cycle 17, after 1 year of treatment), the “response of patient with PTCL-NOS” value is on record as “complete response”. Further, in [7] (FIG. 23 patient), the “duration of complete response” value is 19 months. Also, in data set [7] (setting [8]), the “platelets (PLT) and lactate dehydrogenase (LDH)” value is “improvement”; the “subcutaneous (SQ) tumor” value is given as “dramatic reduction”. In the data set on PLCγ1 phosphorylation, the “phosphorylation of PLCγ1” value is “dose-dependently inhibited”.
